Among the test systems are SN12C renal; T-47D breast; NCI-H23 lung; PC-3 prostate; UACC-62 melanoma; HS 578T breast; HL-60(TB) leukemia; 786-0 renal; HCC-2998 colon; HCT-116 colon.
Common to all, as to experiment: NCI tumour cell line growth inhibition, 48 h

Where “and” joins values, the source holds several entries; their conditions need not be identical. Equal values may be shown once.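 Where inhibition never reached the appropriate level, the endpoint shown equals the highest concentration tested. Otherwise, values were interpolated linearly from a five-concentration, 48-hour dose response in 96-well plates. GI50 = concentration required for 50% inhibition of growth. TGI denotes the concentration required for complete inhibition of growth.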 A value given as a limit tells only on which side of the number the result lay.

On to `COC(=O)[C@@H]1C=CCN1S(=O)(=O)c1ccc(C)cc1`, for which the TGI with SN12C renal, in the assay on T-47D breast, with NCI-H23 lung, in the assay on PC-3 prostate, with UACC-62 melanoma and in the assay with HS 578T breast was > 100 µM in each case. The TGI is 53.5 µM in the assay on HL-60(TB) leukemia, > 100 µM in the assay with 786-0 renal, > 100 µM in the assay on HCC-2998 colon and > 100 µM with HCT-116 colon.

Consider `O=C(NNC(=O)c1ccc(Cl)cc1NC(=O)C12CC3CC(CC(C3)C1)C2)c1ccc(Cl)cc1`, for which the TGI in the assay with SN12C renal is > 100 µM; in the assay with T-47D breast, > 100 µM; in the assay with NCI-H23 lung, > 100 µM; in the assay with PC-3 prostate it was 82.4 µM; with UACC-62 melanoma, 55.8 µM; in the assay with HS 578T breast it was 46.6 µM. Also, the TGI turned out to be 58.7 µM in the assay on HL-60(TB) leukemia, 56.1 µM in the assay with 786-0 renal, 33.4 µM with HCC-2998 colon and 58.1 µM in the assay with HCT-116 colon.

For `COc1c(NC(C)=O)c2ccccc2c2ccccc12`, the TGI in the assay on SN12C renal, with T-47D breast, with NCI-H23 lung, in the assay on PC-3 prostate, in the assay on UACC-62 melanoma and with HS 578T breast was > 100 µM in each case. The TGI in the assay on HL-60(TB) leukemia, in the assay on 786-0 renal and in the assay on HCT-116 colon was > 100 µM throughout.

With `C(=Nc1ccc(-c2nc3ccccc3s2)cc1)c1cccs1`, the TGI in the assay on SN12C renal, in the assay on T-47D breast, with NCI-H23 lung, in the assay with PC-3 prostate, in the assay with UACC-62 melanoma and in the assay on HS 578T breast was > 100 µM each time. In addition, the TGI in the assay on HL-60(TB) leukemia is 0.0298 µM; in the assay on 786-0 renal, > 100 µM; in the assay with HCC-2998 colon, > 100 µM; in the assay on HCT-116 colon, > 100 µM.

Take `C/C(CC(O)(C(F)(F)F)C(F)(F)F)=N\O`: the TGI in the assay with SN12C renal, with T-47D breast, in the assay on NCI-H23 lung, in the assay on PC-3 prostate, in the assay with UACC-62 melanoma and in the assay on HS 578T breast was > 10 µM each time. Besides, the TGI in the assay on HL-60(TB) leukemia, in the assay on 786-0 renal, with HCC-2998 colon and with HCT-116 colon was > 10 µM each time.

For the compound `Cc1cc(NS(=O)(=O)c2ccc(Nc3c4ccccc4nc4c(C(=O)NC(CO)(CO)CO)cccc34)cc2)no1`, the TGI is 78.6 µM with SN12C renal; > 100 µM in the assay with T-47D breast; > 100 µM in the assay with NCI-H23 lung; > 100 µM in the assay on PC-3 prostate; 75.1 µM with UACC-62 melanoma; 52.7 µM with HS 578T breast. Besides, the TGI was > 100 µM in the assay on HL-60(TB) leukemia, > 100 µM in the assay on 786-0 renal and 55.7 µM in the assay on HCC-2998 colon.

Regarding `Nc1ccnc2c1ncn2[C@H]1C[C@H](O)[C@@H](CO)O1`, the TGI with SN12C renal, in the assay with T-47D breast, in the assay with NCI-H23 lung, in the assay with PC-3 prostate, with UACC-62 melanoma and in the assay with HS 578T breast was > 100 µM in each case. The TGI in the assay with HL-60(TB) leukemia, with 786-0 renal, in the assay on HCC-2998 colon and in the assay on HCT-116 colon was > 100 µM in each case.

Consider `O=C(NC1=C(Cl)C(=O)c2ccccc2C1=O)C(=O)c1c(O)c2ccccc2oc1=O`, for which the TGI was 14.3 µM in the assay with SN12C renal; 23.5 µM in the assay with T-47D breast; 4.38 µM with NCI-H23 lung; > 27.1 µM in the assay with PC-3 prostate; 4.58 µM in the assay on UACC-62 melanoma; > 65 µM in the assay on HS 578T breast. In addition, the TGI stood at 29.1 µM in the assay on HL-60(TB) leukemia, 19 µM in the assay on 786-0 renal, 20.4 µM in the assay with HCC-2998 colon and 7.47 µM in the assay with HCT-116 colon.

Regarding `O=C(NCc1cn(Cc2cccc(Oc3ccccc3)c2)nn1)c1cccnc1NCc1ccc(Cl)cc1`, the GI50 is 3.44 µM in the assay with SN12C renal; 3.2 µM with T-47D breast; 3.66 µM with NCI-H23 lung; 2.96 µM in the assay on PC-3 prostate; 2.08 µM with UACC-62 melanoma; 2.72 µM in the assay on HS 578T breast. The GI50 in the assay with HL-60(TB) leukemia is 3.39 µM; in the assay with HCC-2998 colon, 4.17 µM; with HCT-116 colon, 3.18 µM. Further, the TGI in the assay on SN12C renal was > 100 µM; in the assay with T-47D breast it was 42.9 µM; in the assay on NCI-H23 lung, > 100 µM; with PC-3 prostate, > 100 µM; in the assay on UACC-62 melanoma, 6.92 µM; with HS 578T breast it was > 100 µM. Also, the TGI with HL-60(TB) leukemia was determined as 8.07 µM; with HCC-2998 colon it was 28.1 µM; with HCT-116 colon, 9.4 µM.

Turning to `C=CCCCN(C(=O)c1ccccc1)c1ccc(C(=O)OC)o1`, the TGI with SN12C renal, in the assay on T-47D breast, in the assay on NCI-H23 lung, in the assay with PC-3 prostate, in the assay with UACC-62 melanoma and in the assay with HS 578T breast was > 100 µM in each case. The TGI in the assay with HL-60(TB) leukemia, in the assay with 786-0 renal and in the assay on HCT-116 colon was > 100 µM throughout.

In the case of `CCN(CC)CC[n+]1ccc2c(C)c3[nH]c4ccccc4c3c(C)c2c1`, the GI50 in the assay with SN12C renal was 0.195 µM; with NCI-H23 lung, 0.394 µM; in the assay with UACC-62 melanoma, 0.491 µM and 0.827 µM and 1.27 µM; with HL-60(TB) leukemia, 0.402 µM and < 0.0437 µM. Moreover, the TGI in the assay with SN12C renal is 1.9 µM and 0.925 µM and 2.68 µM; in the assay with T-47D breast, 1.19 µM; in the assay on NCI-H23 lung, 2.22 µM and 2.24 µM and 4.13 µM; with PC-3 prostate it was 3.18 µM; with UACC-62 melanoma it was 1.65 µM and 2.56 µM and 3.75 µM; in the assay with HS 578T breast it was 0.933 µM. For the same compound, the TGI is 3.7 µM and 0.464 µM and 0.743 µM in the assay on HL-60(TB) leukemia; 5.96 µM with 786-0 renal; 1.52 µM and 1.43 µM and 1.97 µM in the assay with HCC-2998 colon.

In the case of `CC(C)(C)OC(=O)NCC(c1c[nH]c2ccccc12)c1c[nH]c2ccccc12`, the TGI with SN12C renal was 32.7 µM; in the assay with T-47D breast, 36.5 µM; in the assay on NCI-H23 lung, 36.4 µM; in the assay with PC-3 prostate it was 29.5 µM; in the assay on UACC-62 melanoma it was > 100 µM; in the assay with HS 578T breast it was 57.8 µM. For the same compound, the TGI was 31.8 µM with HL-60(TB) leukemia, 32 µM in the assay on 786-0 renal and 30.4 µM in the assay with HCT-116 colon.

Source of the values: PubChem BioAssay (NCI).
